Common to all, as to type: in vivo
In assay [1] the test system is VERPE: Veronica persica. As to the kind of experiment: Post-emergence herbicidal effect. To be noted: application rate 320 g/ha, treated at one-leaf stage, assessed visually after about 3 weeks, 100% = plants have died. The procedure, abridged:
(§1)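 Seedlings at the one-leaf stage are treated over the foliage with an aqueous spray (600 to 800 L/ha, 0.2% wetting agent) of WP or EC preparations. They then stand in the greenhouse for about 3 weeks before a visual percent score against untreated controls.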

For assay [2], the system named is AMARE: Amaranthus retroflexus. As to the kind of experiment: Post-emergence herbicidal effect. The following applies: application rate 320 g/ha, treated at one-leaf stage, assessed visually after about 3 weeks, 100% = plants have died. In outline: as §1
The test system of assay [3] is ALOMY: Alopecurus myosuroides. Kind of assay: Post-emergence herbicidal effect. The following applies: application rate 320 g/ha, treated at one-leaf stage, assessed visually after about 3 weeks, 100% = plants have died. The procedure, abridged:
as §1

Assay [4] deals with VIOTR: Viola tricolor. As to the kind of experiment: Post-emergence herbicidal effect. The following applies: application rate 320 g/ha, treated at one-leaf stage, assessed visually after about 3 weeks, 100% = plants have died. In outline: as §1
In assay [5] the test system is ECHCG: Echinochloa crus-galli. Kind of assay: Post-emergence herbicidal effect. To be noted: application rate 320 g/ha, treated at one-leaf stage, assessed visually after about 3 weeks, 100% = plants have died. The procedure, abridged: as §1
In assay [6] the test system is STEME: Stellaria media. Kind of assay: Post-emergence herbicidal effect. To be noted: application rate 320 g/ha, treated at one-leaf stage, assessed visually after about 3 weeks, 100% = plants have died. The procedure, abridged:
as §1

Assay [7] concerns LOLMU: Lolium multiflorum. Kind of assay: Pre-emergence herbicidal effect. To be noted: application rate 320 g/ha, scored visually after 3 weeks, 100% = plants have died, 0% = like control plants. The procedure, abridged: (§2)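 Seeds sown in sandy loam and covered; compounds formulated as WP or EC were sprayed on the soil surface at 600 to 800 L/ha water with 0.2% wetting agent. Greenhouse-grown; visual damage scored after 3 weeks versus untreated controls (0–100%).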

Assay [8] concerns VERPE: Veronica persica. As to the kind of experiment: Pre-emergence herbicidal effect. The following applies: application rate 320 g/ha, scored visually after 3 weeks, 100% = plants have died, 0% = like control plants. The procedure, abridged:
as §2

Assay [9] relates to MATIN: Matricaria inodora. Kind of assay: Pre-emergence herbicidal effect. The following applies: application rate 320 g/ha, scored visually after 3 weeks, 100% = plants have died, 0% = like control plants. In outline:
as §2

Assay [10] relates to SETVI: Setaria viridis. Kind of assay: Pre-emergence herbicidal effect. The following applies: application rate 320 g/ha, scored visually after 3 weeks, 100% = plants have died, 0% = like control plants. The procedure, abridged:
as §2

Assay [11] has as its system POLCO: Polygonum convolvulus. Kind of assay: Pre-emergence herbicidal effect. The following applies: application rate 320 g/ha, scored visually after 3 weeks, 100% = plants have died, 0% = like control plants. In outline: as §2
For assay [12], the system named is ALOMY: Alopecurus myosuroides. As to the kind of experiment: Pre-emergence herbicidal effect. To be noted: application rate 320 g/ha, scored visually after 3 weeks, 100% = plants have died, 0% = like control plants. The procedure, abridged: as §2
The subject of assay [13] is ECHCG: Echinochloa crus-galli. As to the kind of experiment: Pre-emergence herbicidal effect. The following applies: application rate 320 g/ha, scored visually after 3 weeks, 100% = plants have died, 0% = like control plants. In outline: as §2
Assay [14] has as its system STEME: Stellaria media. Kind of assay: Pre-emergence herbicidal effect. To be noted: application rate 320 g/ha, scored visually after 3 weeks, 100% = plants have died, 0% = like control plants. In outline:
as §2

Assay [15] has as its system ABUTH: Abutilon theophrasti. As to the kind of experiment: Pre-emergence herbicidal effect. The following applies: application rate 320 g/ha, scored visually after 3 weeks, 100% = plants have died, 0% = like control plants. In outline: as §2

As for `Cc1ccc2c(c1)[C@H](Nc1nnc([S+](C)[O-])c(N)n1)CCC2` (some centres unmarked) [Example 1.69], the “Herbicidal activity with respect to [%] VERPE” value (“Herbicidal activity … [%] VERPE” for short) is reported as 80% in assay [1] and 100% in assay [8]. Also, the “Herbicidal activity with respect to [%] AMARE” value (“Herbicidal activity … [%] AMARE” for short) in assay [2] is reported as 90%. For the same molecule, the “Herbicidal activity with respect to [%] ALOMY” value (“Herbicidal activity … [%] ALOMY” below) in [3] and in assay [12] was 90% throughout. Moreover, the “Herbicidal activity with respect to [%] VIOTR” value (“Herbicidal activity … [%] VIOTR” below) in assay [4] is 80%. For the same molecule, the “Herbicidal activity with respect to [%] ECHCG” value (“Herbicidal activity … [%] ECHCG” below) in assay [5] is on record as 80%; in [13], 100%. Moreover, the “Herbicidal activity with respect to [%] STEME” value (“Herbicidal activity … [%] STEME” below) in assay [6] and in assay [14] was 100% each time. In [7], the “Herbicidal activity with respect to [%] LOLMU” value (“Herbicidal activity … [%] LOLMU” below) is listed as 90%. Besides, in assay [9], the “Herbicidal activity with respect to [%] MATIN” value (shortened to “Herbicidal activity … [%] MATIN”) stood at 100%. Also, in assay [10], the “Herbicidal activity with respect to [%] SETVI” value (from here on “Herbicidal activity … [%] SETVI”) was found to be 100%. The “Herbicidal activity with respect to [%] POLCO” value (“Herbicidal activity … [%] POLCO” for short) in assay [11] came out at 100%.
As to `Cc1ccc2c(c1)[C@H](Nc1nnc(S(C)(=O)=O)c(N)n1)CCC2` [Example 1.68], the “Herbicidal activity … [%] VERPE” value is 80% in assay [1] and 100% in assay [8]. For the same molecule, the “Herbicidal activity … [%] ALOMY” value in assay [3] and in [12] was 100% in each case. The “Herbicidal activity … [%] VIOTR” value in assay [4] was determined as 90%. For the same molecule, the “Herbicidal activity … [%] ECHCG” value was 80% in assay [5] and 100% in [13]. In addition, the “Herbicidal activity … [%] STEME” value in assay [6] and in assay [14] was 100% throughout. Also, in assay [7], the “Herbicidal activity … [%] LOLMU” value amounted to 100%. Further, the “Herbicidal activity … [%] MATIN” value in assay [9] was found to be 100%. The “Herbicidal activity … [%] SETVI” value in assay [10] was found to be 100%. Also, in assay [11], the “Herbicidal activity … [%] POLCO” value is 100%. Further, the “Herbicidal activity with respect to [%] ABUTH” value in [15] is given as 100%.
Regarding `Nc1nc(NC2CCOc3ccc(F)cc32)nnc1C(F)(F)F` (racemic) [Example 1.49], the “Herbicidal activity … [%] VERPE” value in assay [1] and in assay [8] was 100% in each case. Also, the “Herbicidal activity … [%] AMARE” value in assay [2] was 80%. Further, the “Herbicidal activity … [%] ALOMY” value in [3] was determined as 80%; in assay [12], 100%. For the same molecule, the “Herbicidal activity … [%] VIOTR” value in [4] was found to be 90%. For the same molecule, the “Herbicidal activity … [%] ECHCG” value in [5] is 80%; in [13], 100%. In addition, the “Herbicidal activity … [%] STEME” value in [6] is reported as 90%; in [14], 100%. Moreover, the “Herbicidal activity … [%] LOLMU” value in assay [7] is listed as 100%. Besides, the “Herbicidal activity … [%] MATIN” value in assay [9] turned out to be 100%. Further, the “Herbicidal activity … [%] SETVI” value in [10] stood at 100%. The “Herbicidal activity … [%] POLCO” value in [11] is listed as 100%.
In the case of `Nc1nc(N[C@@H]2CCCc3ccccc32)nnc1C(F)(F)F` [Example 1.22], the “Herbicidal activity … [%] VERPE” value in assay [1] and in [8] was 100% each time. The “Herbicidal activity … [%] AMARE” value in assay [2] is reported as 100%. For the same molecule, the “Herbicidal activity … [%] ALOMY” value in assay [3] and in assay [12] was 100% throughout. For the same molecule, in [4], the “Herbicidal activity … [%] VIOTR” value is on record as 100%. In addition, the “Herbicidal activity … [%] ECHCG” value in assay [5] and in assay [13] was 100% each time. Besides, the “Herbicidal activity … [%] STEME” value in [6] and in assay [14] was 100% each time. Besides, the “Herbicidal activity … [%] MATIN” value in [9] worked out at 100%. Also, the “Herbicidal activity … [%] SETVI” value in assay [10] turned out to be 100%. Further, in [11], the “Herbicidal activity … [%] POLCO” value was found to be 100%. Also, the “Herbicidal activity with respect to [%] ABUTH” value in assay [15] was determined as 90%.

The record behind these values is patent US10743540B2, “3-amino-1,2,4-triazine derivatives and their use for controlling undesired plant growth” (BAYER CROPSCIENCE AKTIENGESELLSCHAFT, priority 2016, dated 2020).
